Test results: patent US20240316047A1, “INHIBITORS OF RNA HELICASE DHX9 AND USES THEREOF” (ACCENT THERAPEUTICS, INC., priority 2022, published 2024)

Target: Human recombinant DHX9 protein (Homo sapiens (Human), UniProt Q08211)
Assay: DHX9 ATPase assay (ADP-Glo)
Format: biochemical
Conditions: for IC50: read-out: DHX9 Biochemical Inflection Point

Chain of Human recombinant DHX9 protein (Q08211 whole entry): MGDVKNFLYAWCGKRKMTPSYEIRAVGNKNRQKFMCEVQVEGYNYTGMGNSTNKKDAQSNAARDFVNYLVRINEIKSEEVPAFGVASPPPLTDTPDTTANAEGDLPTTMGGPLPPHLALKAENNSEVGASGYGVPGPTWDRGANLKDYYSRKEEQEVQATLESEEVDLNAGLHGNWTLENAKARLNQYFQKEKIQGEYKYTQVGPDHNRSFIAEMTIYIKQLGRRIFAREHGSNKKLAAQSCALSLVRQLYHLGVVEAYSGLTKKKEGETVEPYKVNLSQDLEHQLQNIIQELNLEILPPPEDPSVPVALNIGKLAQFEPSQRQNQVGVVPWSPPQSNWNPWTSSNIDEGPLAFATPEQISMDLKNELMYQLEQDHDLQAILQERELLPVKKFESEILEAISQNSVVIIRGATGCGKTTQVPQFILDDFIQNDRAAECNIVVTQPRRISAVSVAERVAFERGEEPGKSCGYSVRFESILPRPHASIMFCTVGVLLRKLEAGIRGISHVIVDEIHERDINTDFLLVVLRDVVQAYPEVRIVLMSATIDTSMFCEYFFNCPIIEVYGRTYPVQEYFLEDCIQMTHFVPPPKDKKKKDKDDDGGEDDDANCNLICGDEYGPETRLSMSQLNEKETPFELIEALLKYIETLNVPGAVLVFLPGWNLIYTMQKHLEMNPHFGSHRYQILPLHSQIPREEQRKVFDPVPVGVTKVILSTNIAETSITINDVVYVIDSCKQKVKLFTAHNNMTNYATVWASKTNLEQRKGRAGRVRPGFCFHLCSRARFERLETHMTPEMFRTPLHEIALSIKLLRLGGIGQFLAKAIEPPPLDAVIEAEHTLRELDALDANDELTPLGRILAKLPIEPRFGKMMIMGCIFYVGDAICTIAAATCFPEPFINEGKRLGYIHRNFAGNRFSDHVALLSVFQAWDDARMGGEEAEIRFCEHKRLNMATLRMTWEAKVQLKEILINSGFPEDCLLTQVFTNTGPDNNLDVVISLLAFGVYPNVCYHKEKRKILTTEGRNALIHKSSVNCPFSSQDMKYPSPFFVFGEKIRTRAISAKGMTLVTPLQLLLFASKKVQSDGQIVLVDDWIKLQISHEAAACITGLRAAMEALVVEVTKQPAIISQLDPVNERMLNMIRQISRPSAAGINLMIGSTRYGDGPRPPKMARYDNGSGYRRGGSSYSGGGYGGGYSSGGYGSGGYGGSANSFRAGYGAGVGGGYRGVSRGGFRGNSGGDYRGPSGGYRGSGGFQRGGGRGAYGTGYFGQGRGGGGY

Row | SMILES | DHX9 Biochemical Max Inhibition | IC50 [nM]
1 | Cc1cc(C(=O)Nc2cc(Cl)cc(NS(C)(=O)=O)c2)cn1-c1ncc(F)cn1 [Example 207] | 70% | 15.2
2 | Cc1sc(C(=O)Nc2cc(Cl)cc(NS(C)(=O)=O)c2)cc1-c1ccc(P(C)(C)=O)cn1 [Example 647] | 72.9 | –
3 | Cc1cccnc1-c1nc(C(=O)Nc2cc(Br)cc(NS(C)(=O)=O)c2)cn1C [Example 96, N-(3-bromo-5-(methylsulfonamido)phenyl)-1-methyl-2-(3-methylpyridin-2-yl)-1H-imidazole-4-carboxamide] | 52.8% | 253
4 | Cc1sc(C(=O)Nc2cc(Cl)cc(NS(C)(=O)=O)c2)cc1-c1ncccc1CC(=O)N(C)C [Example 385] | 78.1% | 83.8
5 | CCS(=O)(=O)Nc1cc(Cl)cc(NC(=O)c2cc(-c3ncc(F)cn3)n(C)c2)c1 [Example 542] | 73 | 30
6 | CNc1cnc(-c2cc(C(=O)Nc3cc(Cl)cc(NS(C)(=O)=O)c3)sc2C)nc1 [Example 616, N-(3-chloro-5-methanesulfonamidophenyl)-5-methyl-4-[5-(methylamino)pyrimidin-2-yl]thiophene-2-carboxamide] | 84.2 | 11.4
7 | Cc1sc(C(=O)Nc2cc(Cl)cc(NS(C)(=O)=O)c2)cc1-c1ncc(F)cc1OCc1cnco1 [Example 732] | 70.8 | 10.5
8 | CS(=O)(=O)Nc1cc(Cl)cc(NC(=O)c2cnn(-c3ncccc3OCc3ccccc3F)c2)c1 [Example 189] | 72.1% | 32.7
9 | Cc1sc(C(=O)Nc2cc(Cl)cc(NS(C)(=O)=O)c2)cc1-c1ncc(OC(C)C)cn1 [Example 541, N-(3-chloro-5-(methylsulfonamido)phenyl)-4-(5-isopropoxypyrimidin-2-yl)-5-methylthiophene-2-carboxamide] | 74.1 | 15.1
10 | CS(=O)(=O)Nc1cc(Br)cc(NC(=O)c2cnn(-c3ccc(F)cn3)c2)c1 [Example 39] | 52.3% | 70.1
11 | CCS(=O)(=O)Nc1cc(Cl)cc(NC(=O)c2cc(-c3ncc(F)cn3)c(C)s2)c1 [Example 344] | 74.1% | 21
12 | Cc1cc(C(=O)Nc2cc(Cl)cc(NS(C)(=O)=O)c2)cn1-c1ncccc1OCc1nccs1 [Example 280] | 76.3% | 326
13 | CS(=O)(=O)Nc1cc(Cl)cc(NC(=O)c2cnn(-c3c(F)cccc3OCc3cccc(F)c3)c2)c1 [Example 211] | 65.4% | 62.4
14 | CS(=O)(=O)Nc1cc(Cl)cc(NC(=O)c2cc(-c3ccccc3)c[nH]2)c1 [Example 8] | 54.4% | 395
15 | CN1CCN(C(=O)c2cc(C(=O)Nc3cc(Cl)cc(NS(C)(=O)=O)c3)cn2-c2ccccn2)CC1 [Example 665] | 70.1 | 30.9
16 | CS(=O)(=O)Nc1cc(Cl)cc(NC(=O)c2ccc3nccn3c2)c1 [Example 134] | 40% | 808
17 | CN1CCN(c2csc(C(=O)Nc3cc(Cl)cc(NS(C)(=O)=O)c3)c2)C1=O [Example 431] | 73.5 | 8.6
18 | CS(=O)(=O)Nc1cc(Cl)cc(NC(=O)c2cc(N3CCOC3=O)cs2)c1 [Example 433] | 71.2 | 24.1
19 | CS(=O)(=O)Nc1cc(Cl)cc(NC(=O)c2cnn(-c3ncccc3OCc3cccc(Cl)c3)c2)c1 [Example 70] | 78.9% | 8.5
20 | CS(=O)(=O)Nc1cc(Cl)cc(NC(=O)c2cnn(C3CC4(CC(N)C4)C3)c2)c1 (stereo not shown) [Example 319] | 70.1% | 57.7
21 | Cc1sc(C(=O)Nc2cc(Cl)cc(NS(C)(=O)=O)c2)cc1-c1c(F)cccc1OCc1ccccc1 [Example 240] | 71% | 353
22 | CCS(=O)(=O)Nc1cc(Cl)cc(NC(=O)c2cc(-c3ncc(N4CC(F)(F)C4)cn3)c(C)s2)c1 [Example 463] | 77.1 | 8.5
23 | CC(=O)N1CC2(CC(n3cc(C(=O)Nc4cc(Cl)cc(NS(C)(=O)=O)c4)cn3)C2)C1 [Example 313] | 63.6% | 147
24 | CCOc1cnc(-c2cc(C(=O)Nc3cc(Cl)cc(NS(C)(=O)=O)c3)sc2C)c(F)c1 [Example 456] | 61.5 | 16.2
25 | Cn1cc(C(=O)Nc2cc(Cl)cc(NS(C)(=O)=O)c2)cc1-c1ncccc1Oc1cccnc1 [Example 655] | 67.8 | 11.4

More lines, now with the values ahead:

Row | DHX9 Biochemical Max Inhibition | IC50 [nM] | SMILES
26 | 72.6% | 16.5 | CS(=O)(=O)Nc1cc(Cl)cc(NC(=O)c2cnn(-c3ccc(N4CCn5ccnc5C4)cn3)c2)c1 [Example 192]
27 | 60.9 | 211 | Cn1cc(C(=O)Nc2cc(Cl)cc(NS(C)(=O)=O)c2)cc1-c1ncc(N2CCC(C(F)(F)F)CC2)cc1F [Example 472]
28 | 50.7 | 68.8 | Cc1cc(F)cc(C#N)c1-c1cc(C(=O)Nc2cc(Cl)cc(NS(C)(=O)=O)c2)cn1C [Example 659]
29 | 63.8% | 115 | CS(=O)(=O)Nc1cc(Cl)cc(NC(=O)c2cc(Br)cs2)c1 [Example 241]
30 | 72.1 | 11.4 | Cc1cc(C(=O)Nc2cc(Cl)cc(NS(C)(=O)=O)c2)cn1-c1ccc(N2CC(F)(F)C2)cn1 [Example 399]
31 | 68.5 | 37.6 | CS(=O)(=O)Nc1cc(Cl)cc(NC(=O)c2cc(-n3cc(F)cn3)cs2)c1 [Example 440]
32 | 65.2% | 48.2 | CS(=O)(=O)Nc1cc(Cl)cc(NC(=O)c2cc(-c3ncccc3OCc3ccccc3)cs2)c1 [Example 29]
33 | 70.4% | 39.6 | Cc1cccnc1-n1cc(C(=O)Nc2cc(Cl)cc(NS(C)(=O)=O)c2)cc1C [Example 130]
34 | 59.8% | 210 | CS(=O)(=O)Nc1cc(Cl)cc(NC(=O)c2cc(-c3cccc(F)c3)cs2)c1 [Example 108]
35 | 84% | 9.6 | Cc1sc(C(=O)Nc2cc(Cl)cc(NS(C)(=O)=O)c2)cc1-c1ncc(F)cn1 [Example 336]
36 | 73.5% | 21 | CS(=O)(=O)Nc1cc(Cl)cc(NC(=O)c2cc(-c3ncccc3Nc3ncccn3)cs2)c1 [Example 237]
37 | 85.3 | 6.8 | COC1CN(c2ccc(-c3cc(C(=O)Nc4cc(Cl)cc(NS(C)(=O)=O)c4)cn3C)nc2)C1 [Example 465]
38 | 61.3% | 8.6 | CCS(=O)(=O)Nc1cc(Cl)cc(NC(=O)c2cc(-c3ncccn3)n(C)c2)c1 [Example 173, N-(3-chloro-5-(ethylsulfonamido)phenyl)-1-methyl-5-(pyrimidin-2-yl)-1H-pyrrole-3-carboxamide]
39 | 72.7% | 26 | COc1ccc(-n2cc(C(=O)Nc3cc(Cl)cc(NS(C)(=O)=O)c3)cn2)nc1 [Example 197]
40 | 63% | 7.8 | CS(=O)(=O)Nc1cc(Br)cc(NC(=O)c2cc(-n3cccn3)cs2)c1 [Example 60]
41 | 69.1 | 37 | Cn1cc(C(=O)Nc2cc(Cl)cc(NS(C)(=O)=O)c2)cc1-c1ncc(F)cc1-c1cncc(F)c1 [Example 604, N-(3-chloro-5-methanesulfonamidophenyl)-5-{5,5′-difluoro-[3,3′-bipyridin]-2-yl}-1-methylpyrrole-3-carboxamide]
42 | 71% | 47.5 | Cc1cnc(-n2cc(C(=O)Nc3cc(Cl)cc(NS(C)(=O)=O)c3)cn2)c(OCc2cnco2)c1 [Example 261]
43 | 51.2% | 695 | Cc1cccnc1-c1nc(C(=O)Nc2cc(Cl)cc(NS(C)(=O)=O)c2)cn1C [Example 156]
44 | 88.6% | 44.3 | Cc1sc(C(=O)Nc2cc(Cl)cc(NS(C)(=O)=O)c2)cc1-c1c(F)cncc1F [Example 362]
45 | 63.8% | 272 | CC(=O)N1CCC(n2cc(C(=O)Nc3cc(Cl)cc(NS(C)(=O)=O)c3)cn2)CC1 [Example 317]
46 | 67.7% | 28.8 | Cc1cccnc1-c1csc(C(=O)Nc2cc(Br)cc(NS(C)(=N)=O)c2)c1 (stereo not shown) [Example 122]
47 | 52.8% | 381 | CS(=O)(=O)Nc1cc(Cl)cc(NC(=O)c2cnn(-c3cnc(N4CCOCC4)cn3)c2)c1 [Example 388]
48 | 80.1 | 7 | CS(=O)(=O)Nc1cc(Cl)cc(NC(=O)c2cc(-c3ncc(F)cc3OCc3cncnc3)n(CC(F)(F)F)c2)c1 [Example 735]
49 | 82.4 | 9.1 | COc1cc(N2CC(F)(F)C2)cnc1-c1cc(C(=O)Nc2cc(Cl)cc(NS(C)(=O)=O)c2)cn1C [Example 462]
50 | 81.1 | 126 | Cn1cc(C(=O)Nc2cc(Cl)cc(NS(C)(=O)=O)c2)cc1-c1c(F)cc(F)cc1F [Example 547]
51 | 68.7% | 23.8 | CS(=O)(=O)Nc1cc(Cl)cc(NC(=O)c2cnn(-c3ncccc3OCc3ccccc3)c2)c1 [Example 68]
52 | 83.7 | 8.2 | Cc1sc(C(=O)Nc2cc(Cl)cc(NS(C)(=O)=O)c2)cc1-c1ncc(N2CC(F)(F)C2)cn1 [Example 510]
53 | 62.3% | 113 | CS(=O)(=O)Nc1cc(Cl)cc(NC(=O)c2cnn(-c3ncccc3OCc3ccc(F)cc3)c2)c1 [Example 69]
54 | 58.5% | 132 | Cc1ccc2cc(C(=O)Nc3cc(Cl)cc(NS(C)(=O)=O)c3)cn2c1 [Example 300]
55 | 59% | 76.5 | CSc1ccc(-n2cc(C(=O)Nc3cc(Cl)cc(NS(C)(=O)=O)c3)cn2)nc1 [Example 218]
